In patent US10047050B2, “3,4-di-substituted pyridine compound, methods of using and compositions comprising the same” (ARDEA BIOSCIENCES, INC., priority 2011, dated 2018):

Target: T1, URAT-1 model (Homo sapiens, UniProt Q96S37)
T1 sequence (Q96S37 1-553): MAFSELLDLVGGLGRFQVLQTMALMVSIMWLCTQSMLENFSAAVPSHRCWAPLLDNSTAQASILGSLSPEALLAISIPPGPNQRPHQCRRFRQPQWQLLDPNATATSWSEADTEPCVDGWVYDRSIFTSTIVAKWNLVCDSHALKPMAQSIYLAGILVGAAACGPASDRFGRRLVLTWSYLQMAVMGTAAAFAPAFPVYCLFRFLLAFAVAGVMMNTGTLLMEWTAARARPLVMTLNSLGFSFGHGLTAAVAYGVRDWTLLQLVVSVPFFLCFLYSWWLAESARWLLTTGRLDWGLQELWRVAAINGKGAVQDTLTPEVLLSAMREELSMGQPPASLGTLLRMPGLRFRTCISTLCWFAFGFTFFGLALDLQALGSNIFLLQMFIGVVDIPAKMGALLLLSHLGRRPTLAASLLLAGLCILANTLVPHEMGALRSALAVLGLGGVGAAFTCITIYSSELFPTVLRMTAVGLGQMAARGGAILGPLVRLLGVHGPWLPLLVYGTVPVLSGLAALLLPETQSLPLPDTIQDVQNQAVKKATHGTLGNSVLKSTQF
Assay: URAT1-model assay, 14C-uric acid transport in HEK293/URAT1-model cells
Format: cell-based
Details: 125 μM 14C-uric acid, 10 minutes
Description: Transfections of HEK293 cells with a model URAT1 construct was performed using L2000 transfection reagent (Invitrogen) as described by the manufacturer. After 24 h the transfected cells were split into 10 cm tissue culture plates and grown for 1 day after which the medium was replaced with fresh growth medium containing G418 (Gibco) at 0.5 mg/ml final concentration. Drug-resistant colonies were selected after approximately 8 days and then tested for ^14C-uric acid transport activity. The HEK293/URAT1-model cells are plated on Poly-D-Lysine Coated 96-well Plates at a density of 125,000 cells per well.
Cells were grown overnight (20-26 hours) at 37° C. in an incubator. Plates were allowed to come to room temperature and media was washed out with one wash of 250 μl of Wash Buffer (125 mM Na Gluconate, 10 mM Hepes ph 7.3). […] Assay Buffer is 125 mM Sodium Gluconate, 4.8 mM Potassium Gluconate, 1.2 mM Potassium phosphate, monobasic, 1.2 mM magnesium sulfate, 1.3 mM Ca Gluconate, 5.6 mM Glucose, 25 mM HEPES, pH 7.3. Plates were incubated at room temperature for 10 minutes then washed 3 times with 50 μl Wash Buffer and 3 times with 250 μl Wash Buffer. Microscint 20 Scintillation Fluid was added and plates were incubated overnight at room temperature to equilibrate. Plates are then read on the TopCount Plate Reader and an EC50 value generated. […]

EC50: ≤ 50 nM
SMILES: CC(C)(Sc1ccncc1-c1ccc(C#N)c2ccccc12)C(=O)O [2-((3-(4-cyanonaphthalen-1-yl)pyridin-4-yl)thio)-2-methylpropanoic acid]
